Assay [1] addresses xanthine oxidase (XO) (Homo sapiens, UniProt P47989). Put plainly: XO dependent nitrite reduction to NO / XO activity. The format is biochemical. The text has this:
Referring to FIGS. 1-8, a further embodiment of the disclosed invention, including a method of treatment of various conditions by increasing XO associated nitrite conversion to nitric oxide is described. This embodiment of the disclosed invention describes chemical reactions that may be useful for stimulating xanthine oxidase (XO) to increase nitrite conversion to nitric oxide, namely diallyl trisulfide (DATS) stimulation of XO reduction of nitrite to nitric oxide. This would be useful for various purposes including unique ways to stimulate nitrite reduction to nitric oxide within an organism.
DATS may therefore be administered alone, or for example, with nitrite and/or XO, as a therapeutic for known NO mediated conditions, including inflammation, wound healing, and infections. DATS can be administered in a variety of methods, including nanoformulation compounds, especially for creams or lotions.

The conditions of assay [2]: ascorbic acid as comparison agent; general statement; cited from earlier work.
Assay [3] in a line: nitrite reduction to NO facilitated by ascorbic acid, DADS, or DATS. Particulars: FIGS. 4, 6; over one hour. The text has this: FIG. 4 is a line graph of experiments showing nitrite reduction to NO facilitated by ascorbic acid, DADS, or DATS;
FIG. 5 is a pair of line graphs of two experiments showing nitrite reduction to NO facilitated by ascorbic acid over one hour;
FIG. 6 is a pair of line graphs of two experiments showing nitrite reduction to NO facilitated by DADS over one hour;
FIG. 7 is a pair of line graphs of two experiments showing nitrite reduction to NO facilitated by DATS over one hour;
Turning to FIGS. 1-7, an embodiment of the disclosed invention, including a method of treatment of various conditions by increasing nitrite conversion to nitric oxide via DADS is described. This embodiment of the disclosed invention describes chemical reactions that may be useful for stimulating nitrite conversion to nitric oxide, namely diallyl disulfide (DADS) reduction of nitrite to nitric oxide. […] This would be useful for various purposes including unique ways to stimulate nitrite reduction to nitric oxide within an organism.
While it has been shown that increasing NO levels can be therapeutic for a number of conditions, the biochemical mechanism of nitrite reduction to NO, and thereby increasing NO levels, is poorly understood. Some agents can facilitate such reduction, such as ascorbic acid, but do so weakly. […]

Like-named read-outs stand apart in the source and are kept apart here.

Sequence of xanthine oxidase (XO) (P47989 whole entry, species assumed): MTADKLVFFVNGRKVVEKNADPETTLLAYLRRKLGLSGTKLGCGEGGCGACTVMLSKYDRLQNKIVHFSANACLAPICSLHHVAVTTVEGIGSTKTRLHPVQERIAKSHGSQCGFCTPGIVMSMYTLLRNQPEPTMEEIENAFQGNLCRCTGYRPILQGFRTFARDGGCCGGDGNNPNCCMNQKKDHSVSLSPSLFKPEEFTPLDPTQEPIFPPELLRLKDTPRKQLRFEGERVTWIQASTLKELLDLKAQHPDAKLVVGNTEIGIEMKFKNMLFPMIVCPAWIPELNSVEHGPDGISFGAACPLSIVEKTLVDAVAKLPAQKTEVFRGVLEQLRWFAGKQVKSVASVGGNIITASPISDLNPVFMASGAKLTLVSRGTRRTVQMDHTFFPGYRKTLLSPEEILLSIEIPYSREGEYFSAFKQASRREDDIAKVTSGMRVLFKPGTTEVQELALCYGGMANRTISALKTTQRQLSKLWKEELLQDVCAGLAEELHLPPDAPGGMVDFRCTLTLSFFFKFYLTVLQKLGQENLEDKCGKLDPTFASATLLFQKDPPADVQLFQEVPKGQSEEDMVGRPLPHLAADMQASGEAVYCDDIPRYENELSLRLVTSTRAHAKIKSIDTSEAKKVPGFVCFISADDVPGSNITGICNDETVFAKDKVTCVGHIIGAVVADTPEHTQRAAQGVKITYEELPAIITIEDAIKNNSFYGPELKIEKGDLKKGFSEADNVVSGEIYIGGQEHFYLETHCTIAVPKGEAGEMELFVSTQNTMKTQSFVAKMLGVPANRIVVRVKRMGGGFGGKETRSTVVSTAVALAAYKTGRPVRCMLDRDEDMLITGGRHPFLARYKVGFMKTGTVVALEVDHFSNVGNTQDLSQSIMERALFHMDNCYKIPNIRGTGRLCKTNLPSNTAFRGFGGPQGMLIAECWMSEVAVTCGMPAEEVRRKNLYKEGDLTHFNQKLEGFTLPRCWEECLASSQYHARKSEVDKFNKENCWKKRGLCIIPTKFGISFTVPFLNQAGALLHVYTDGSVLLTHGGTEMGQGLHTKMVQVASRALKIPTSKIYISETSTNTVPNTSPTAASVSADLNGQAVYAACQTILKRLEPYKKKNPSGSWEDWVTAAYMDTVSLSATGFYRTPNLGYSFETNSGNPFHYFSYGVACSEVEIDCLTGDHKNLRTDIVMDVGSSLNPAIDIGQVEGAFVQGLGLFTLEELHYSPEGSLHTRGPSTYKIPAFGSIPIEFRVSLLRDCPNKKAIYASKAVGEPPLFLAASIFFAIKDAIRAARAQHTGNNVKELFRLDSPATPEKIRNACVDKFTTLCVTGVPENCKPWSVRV

Regarding `C=CCSSSCC=C` [DATS, diallyl trisulfide], the “XO dependent nitrite reduction to NO” value in assay [1] is reported as “selectively increases XO dependent nitrite reduction to NO”. Also, the “XO activity & NO production” value in assay [1] (FIG. 8) is “differentially affects XO activity & NO production”.
On to `O=C1O[C@H]([C@@H](O)CO)C(O)=C1O` [ascorbic acid], for which, in assay [2], the “nitrite reduction to NO” value is on record as “weakly”.
For `C=CCSSCC=C` [DADS, diallyl disulfide], the “nitrite reduction to NO” value in assay [3] is on record as “selectively stimulate nitrite reduction to NO”.

These data come from patent US10675253B2, “Methods of diagnosis and treatment involving nitrite” (Board of Supervisors of Louisiana State University and …, priority 2017, dated 2020).
